From patent EP0325016A1, “Antiperspirants with alpha-2-adrenergic amine activity” (Bristol-Myers Company, priority 1988, dated 1989)
Where a name gives a salt, the structure may show the parent alone.

Tested on: rat foot pad
Assay: Inhibition of sweat in the rat foot pad (iodine/starch count of activated sweat glands, test foot vs control foot)
Type: in vivo, Sprague Dawley rats
Conditions: for Approx. % Inhibition: topical on hind foot pads, photo 40 minutes post treatment
Procedure: To test the effectiveness of the adrenergic amines encompassed in this invention in inhibiting perspiration the following tests were carried out.
A series of test solutions were prepared by dissolving various quantities of xylometazoline HCl, oxymetazoline HCl and naphazoline HCl in freshly prepared distilled water. In the case of xylometazoline HCl 0.003%, 0.03%, 0.15% and 0.3% solutions were prepared. In the cases for oxymetazoline HCl and naphazoline HCl 0.15% solutions were made. The control material is distilled water.
• A. Prior to testing, rats are routinely acclimated to the laboratory environment for seven days and gross observations are made to ensure good health of animals to be tested. • B. Sprague Dawley rats, male and/or female (175-250 gm) are selected for test and identified by cage label and ear tag number. • C. A minimum of 6 animals is used in testing each solution.
• A. Test room should be maintained at a temperature of 78/± 2/F. • B. • 1. Test animals are injected intramuscularly with Innovar Vet\)\ (.01 ml/100 gm body wt.) by use of a 0.25 ml tuberculin syringe with a 26-27 gauge needle. Animals are then returned to their cages. • 2. […] Both hind feet are then swabbed with 70% ethyl alcohol (ETOH) to remove any debris. • 4. The four interdigital palmar foot pads on one hind foot are then treated with test material while the opposite hind foot is treated with the control material. • 5. After treatment of all animals, an iodine solution (2% in 95% ETOH wt./vol.) is applied to both hind feet. • 6. 30 minutes post treatment the hind feet are then painted with a suspension of starch and castor oil (50/50, wt./vol.). • 7. 40 minutes post treatment Polaroid photos (3X, using Polaroid Type Film 669) are taken of both hind feet in the same frame.
• 1. The number of activated sweat glands in each of the four palmar foot pads is quantitated by manually counting the black dots observed in the photo of the control and test treated feet. • 2. The ratio of the total number of secreting sweat glands on the control foot vs the total number of secreting glands on the test foot is used to estimate the percent inhibition of sweat in the rat foot pad. • 3. The following formula is used to calculate activity: Percent inhibition of sweat in the rat foot pad = [formula]

[1] = Concentration tested 0.15% in distilled water

Row | Compound | Approx. % Inhibition [1] [%] | Approx. % Inhibition (Concentration tested 0.003% in distilled water) [%] | Approx. % Inhibition (Concentration tested 0.03% in distilled water) [%] | Approx. % Inhibition (Concentration tested 0.3% in distilled water) [%] | perspiration inhibition (result in words) (summary of Table I, concentrations 0.003-0.3%)
1 | c1ccc2c(CC3=NCCN3)cccc2c1 [Naphazoline HCl, naphazoline HCl] | ~95 | – | – | – | –
2 | Cc1cc(C(C)(C)C)c(O)c(C)c1CC1=NCCN1 [Oxymetazoline HCl, oxymetazoline HCl] | ~92 | – | – | – | –
3 | Cc1cc(C(C)(C)C)cc(C)c1CC1=NCCN1 [Xylometazoline HCl, xylometazoline HCl] | ~80 | ~30 | ~50 | ~88 | a dose response has been demonstrated
